From US11976084B2, “Spiropyrrolidine derived antiviral agents” (Enanta Pharmaceuticals, Inc., priority 2020, dated 2024) come the findings set out here.

This assay deals with SARS-CoV-2 3CL-protease (Severe acute respiratory syndrome coronavirus 2, UniProt P0DTD1). The assay is described as follows: SARS-CoV-2 3C-like (3CL) protease fluorescence assay (FRET). Format: biochemical. Particulars: recombinant SARS-CoV-2 3CL-protease 10 nM, 30 min preincubation at RT, TAMRA-[…]-Dabcyl-OH substrate, run in duplicate. How it is done: SARS-CoV-2 3C-like (3CL) protease fluorescence assay (FRET): Recombinant SARS-CoV-2 3CL-protease was expressed and purified. TAMRA-[…]-Dabcyl-OH peptide 3CLpro substrate was synthesized. Black, low volume, round-bottom, 384 well microplates were used. In a typical assay, 0.85 μL of test compound was dissolved in DMSO then incubated with SARS-CoV-2 3CL-protease (10 nM) in 10 μL assay buffer (50 mM HEPES [pH 7.5], 1 mM DTT, 0.01% BSA, 0.01% Triton-X 100) for 30 min at RT. Next, 10 μL of 3CL-protease substrate (40 μM) in assay buffer was added and the assays were monitored continuously for 1 h in an Envision multimode plate reader operating in fluorescence kinetics mode with excitation at 540 nm and emission at 580 nm at RT. No compound (DMSO only) and no enzyme controls were routinely included in each plate. All experiments were run in duplicate. Data Analysis: SARS-CoV-2 3CL-protease enzyme activity was measured as initial velocity of the linear phase (RFU/s) and normalized to controlled samples DMSO (100% activity) and no enzyme (0% activity) to determine percent residual activity at various concentrations of test compounds (0-10 μM). Data were fitted to normalized activity (variable slope) versus concentration fit in GraphPad Prism 7 to determine IC50.

As to `COc1cccc2[nH]c(C(=O)N3C[C@@H]4CCC[C@@H]4[C@H]3C(=O)N3C[C@]4(C[C@H]3C#N)C(=O)Nc3ccccc34)cc12` [Example 1], the concentration for half-maximal inhibition (IC50) is less than 100 nM. Turning to `COc1cccc2[nH]c(C(=O)N3CC4(CC4)C[C@H]3C(=O)N3C[C@]4(C[C@H]3C#N)C(=O)Nc3ccccc34)cc12` [Example 2], the IC50 is 100 to 1000 nM. As to `COc1cccc2oc(C(=O)N3C[C@H]4[C@@H]([C@H]3C(=O)N3C[C@]5(C[C@H]3C#N)C(=O)Nc3ccccc35)C4(C)C)cc12` [Example 3], the 50% inhibitory concentration (IC50) is less than 100 nM.

As to `COc1cccc2[nH]c(C(=O)N3C[C@@]4(C[C@H]3C(=O)N3C[C@]5(C[C@H]3C#N)C(=O)Nc3ccccc35)CC4(F)F)cc12` [Example 4], the IC50 was in the range of 100 to 1000 nM. Take `COc1cccc2[nH]c(C(=O)N3[C@@H]4C[C@@H]4C[C@H]3C(=O)N3C[C@]4(C[C@H]3C#N)C(=O)Nc3ccccc34)cc12` [Example 5]: the IC50 was less than 100 nM. Turning to `N#C[C@@H]1C[C@@]2(CN1C(=O)[C@@H]1[C@H]3CCC[C@H]3CN1C(=O)OCc1ccccc1)C(=O)Nc1ccccc12` [Example 6], the IC50 lay within 100 to 1000 nM. In the case of `N#C[C@@H]1C[C@@]2(CN1C(=O)[C@@H]1[C@H]3CCC[C@H]3CN1C(=O)c1cc3c(F)cc(F)cc3[nH]1)C(=O)Nc1ccccc12` [Example 7] it was 100 to 1000 nM; in that of `CC1(C)[C@@H]2[C@@H](C(=O)N3C[C@]4(C[C@H]3C#N)C(=O)Nc3ccccc34)N(C(=O)c3cc4c(OC(F)F)cccc4[nH]3)C[C@@H]21` [Example 8], 100 to 1000 nM.

For orientation: IC50 means the point on the concentration scale where inhibition reaches its midpoint.
